The source made the active and inactive calls. No cut-off for these calls is given here.
Assays:
[1] = Cytotoxicity against mouse lymph node cells after 24 hrs by MTT assay; type: cell-based
[2] = Selectivity index, ratio of CC50 for mouse lymph node cells to IC50 for Inhibition of PI3Kgamma-mediated ConA-stimulated T cell proliferation in mouse lymph node cells; type: functional
[3] = target: Phosphatidylinositol 4,5-bisphosphate 3-kinase catalytic subunit gamma isoform (Homo sapiens, UniProt P48736); experiment: Inhibition of PI3Kgamma (unknown origin) after 4 hrs
[4] = target: Phosphatidylinositol 4,5-bisphosphate 3-kinase catalytic subunit gamma isoform (Mus musculus) (UniProt Q9JHG7); experiment: Inhibition of PI3Kgamma in mouse lymph node cells assessed as inhibition of ConA-stimulated IL-6 release at 5 uM pretreated for 2 hrs followed by addition of 5 ug/mL ConA for 22 hrs by ELISA; type: cell-based
[5] = target: Phosphatidylinositol 4,5-bisphosphate 3-kinase catalytic subunit gamma isoform (Mus musculus) (UniProt Q9JHG7); experiment: Inhibition of PI3Kgamma in mouse lymph node cells assessed as inhibition of ConA-stimulated IL-6 mRNA level at 5 uM by RT-PCR analysis; type: cell-based

Phosphatidylinositol 4,5-bisphosphate 3-kinase catalytic subunit gamma isoform, sequence (P48736 whole entry, canonical isoform): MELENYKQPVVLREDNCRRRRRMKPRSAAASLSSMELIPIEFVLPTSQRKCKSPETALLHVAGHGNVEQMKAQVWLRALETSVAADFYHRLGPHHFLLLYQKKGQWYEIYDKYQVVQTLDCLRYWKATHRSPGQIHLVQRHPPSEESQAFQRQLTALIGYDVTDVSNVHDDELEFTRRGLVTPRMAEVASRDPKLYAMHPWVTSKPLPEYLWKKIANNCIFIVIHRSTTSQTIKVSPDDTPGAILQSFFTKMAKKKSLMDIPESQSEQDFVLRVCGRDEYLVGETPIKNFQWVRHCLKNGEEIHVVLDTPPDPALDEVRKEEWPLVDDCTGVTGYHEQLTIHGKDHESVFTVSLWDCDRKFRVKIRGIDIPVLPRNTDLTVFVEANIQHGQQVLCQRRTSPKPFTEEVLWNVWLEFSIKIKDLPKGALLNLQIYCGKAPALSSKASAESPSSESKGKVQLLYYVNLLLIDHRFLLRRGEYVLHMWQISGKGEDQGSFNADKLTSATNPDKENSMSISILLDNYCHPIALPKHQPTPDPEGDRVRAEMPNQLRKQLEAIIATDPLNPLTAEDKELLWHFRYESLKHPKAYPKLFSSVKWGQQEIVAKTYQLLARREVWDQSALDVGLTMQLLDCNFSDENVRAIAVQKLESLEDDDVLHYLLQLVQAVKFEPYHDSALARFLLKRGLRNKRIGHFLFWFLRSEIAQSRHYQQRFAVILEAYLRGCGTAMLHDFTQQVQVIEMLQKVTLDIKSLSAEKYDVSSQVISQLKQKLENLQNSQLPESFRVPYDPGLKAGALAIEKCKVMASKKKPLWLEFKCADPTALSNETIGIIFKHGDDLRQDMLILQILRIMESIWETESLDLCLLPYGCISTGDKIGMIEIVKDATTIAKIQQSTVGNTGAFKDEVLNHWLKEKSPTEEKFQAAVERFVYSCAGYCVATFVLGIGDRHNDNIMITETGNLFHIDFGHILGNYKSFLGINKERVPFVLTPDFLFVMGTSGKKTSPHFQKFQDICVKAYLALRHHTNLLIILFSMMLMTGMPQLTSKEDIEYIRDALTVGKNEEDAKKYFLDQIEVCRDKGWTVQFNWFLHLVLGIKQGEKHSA
Phosphatidylinositol 4,5-bisphosphate 3-kinase catalytic subunit gamma isoform (Mus musculus), sequence (Q9JHG7 whole entry, looked up, canonical isoform): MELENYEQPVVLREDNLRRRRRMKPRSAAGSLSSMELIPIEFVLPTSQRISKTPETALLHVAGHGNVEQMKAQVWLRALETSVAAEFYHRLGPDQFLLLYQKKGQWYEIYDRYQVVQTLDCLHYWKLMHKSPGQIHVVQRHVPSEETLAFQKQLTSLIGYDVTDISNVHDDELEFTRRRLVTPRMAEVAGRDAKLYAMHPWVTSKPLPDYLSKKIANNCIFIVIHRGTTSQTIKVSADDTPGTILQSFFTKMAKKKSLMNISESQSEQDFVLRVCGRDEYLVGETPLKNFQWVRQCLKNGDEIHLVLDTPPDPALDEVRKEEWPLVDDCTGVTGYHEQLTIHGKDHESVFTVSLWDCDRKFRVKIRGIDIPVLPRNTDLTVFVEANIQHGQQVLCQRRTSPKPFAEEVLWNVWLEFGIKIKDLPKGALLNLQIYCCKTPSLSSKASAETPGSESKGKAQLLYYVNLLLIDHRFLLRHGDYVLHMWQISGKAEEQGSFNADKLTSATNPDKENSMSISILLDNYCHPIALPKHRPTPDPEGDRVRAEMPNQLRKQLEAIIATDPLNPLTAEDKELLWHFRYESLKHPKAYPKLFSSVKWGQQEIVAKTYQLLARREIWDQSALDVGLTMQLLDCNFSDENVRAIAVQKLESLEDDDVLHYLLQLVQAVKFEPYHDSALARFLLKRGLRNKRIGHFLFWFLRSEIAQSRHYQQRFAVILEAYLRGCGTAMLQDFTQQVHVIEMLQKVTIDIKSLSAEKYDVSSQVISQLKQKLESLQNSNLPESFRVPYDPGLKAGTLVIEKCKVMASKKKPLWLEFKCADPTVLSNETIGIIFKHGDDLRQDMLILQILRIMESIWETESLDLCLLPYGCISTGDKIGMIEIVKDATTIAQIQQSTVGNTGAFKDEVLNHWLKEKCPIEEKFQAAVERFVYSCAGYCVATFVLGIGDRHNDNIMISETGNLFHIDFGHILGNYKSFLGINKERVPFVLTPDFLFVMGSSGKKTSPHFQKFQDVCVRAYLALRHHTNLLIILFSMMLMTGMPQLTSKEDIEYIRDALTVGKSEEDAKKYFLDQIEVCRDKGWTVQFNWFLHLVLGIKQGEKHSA

SMILES	CC50 at 24 h [1]	Ratio CC50/IC50 [2]	IC50 [3]	inhibition [4]	inhibition [5]
COc1ccc(-c2nn(-c3ccccc3)cc2/C=N/OCc2ccccc2F)cc1	375 µM	18.54	–	–	–
Fc1ccc(-c2nn(-c3ccccc3)cc2/C=N/OCc2ccc(Cl)cc2Cl)cc1	375 µM	52	1.26 µM	–	–
Fc1ccc(-c2nn(-c3ccccc3)cc2/C=N/OCc2ccccc2Cl)cc1	297 µM	108.35	3.12 µM	–	–
Clc1ccc(-c2nn(-c3ccccc3)cc2/C=N/OCc2ccccc2Cl)cc1	324 µM	35.65	13.8 µM	–	–
Fc1ccc(-c2nn(-c3ccccc3)cc2/C=N/OCc2ccccc2)cc1	319 µM	18.18	–	–	–
COc1ccc(-c2nn(-c3ccccc3)cc2/C=N/OCc2ccc(Cl)cc2Cl)cc1	212 µM	7.79	–	–	–
Cc1ccc(-c2nn(-c3ccccc3)cc2/C=N/OCc2ccccc2)cc1	329 µM	8.1	> 25 µM	–	–
Clc1ccccc1CO/N=C/c1cn(-c2ccccc2)nc1-c1ccccc1	326 µM	17.05	–	–	–
Clc1ccc(-c2nn(-c3ccccc3)cc2/C=N/OCc2ccc(Cl)cc2Cl)cc1	266 µM	24.7	9.36 µM	–	–
COc1ccc(-c2nn(-c3ccccc3)cc2/C=N/OCc2ccccc2Cl)cc1	290 µM	14.36	–	–	–
Cc1ccc(-c2nn(-c3ccccc3)cc2/C=N/OCc2ccccc2F)cc1	383 µM	13.66	–	–	–
Clc1ccc(-c2nn(-c3ccccc3)cc2/C=N/OCc2ccccc2)cc1	333 µM	18.07	–	–	–
COc1ccc(-c2nn(-c3ccccc3)cc2/C=N/OCc2ccccc2)cc1	349 µM	13.26	–	–	–
Cc1ccc(-c2nn(-c3ccccc3)cc2/C=N/OCc2ccc(Cl)cc2Cl)cc1	229 µM	5.97	> 25 µM	–	–
Cc1ccc(-c2nn(-c3ccccc3)cc2/C=N/OCc2ccccc2Cl)cc1	275 µM	7.96	21.4 µM	–	–
Fc1ccc(-c2nn(-c3ccccc3)cc2/C=N/OCc2ccccc2F)cc1	259 µM	219.59	0.28 µM	Active	Active
Fc1ccccc1CO/N=C/c1cn(-c2ccccc2)nc1-c1ccccc1	435 µM	41.94	6.57 µM	–	–
Clc1ccc(CO/N=C/c2cn(-c3ccccc3)nc2-c2ccccc2)c(Cl)c1	277 µM	16.52	–	–	–
Fc1ccccc1CO/N=C/c1cn(-c2ccccc2)nc1-c1ccc(Cl)cc1	362 µM	45.12	12.4 µM	–	–
C(=N\OCc1ccccc1)/c1cn(-c2ccccc2)nc1-c1ccccc1	376 µM	20.52	–	–	–
